# Laboratory results reported in ChEMBL document CHEMBL1201862, “PubChem BioAssay data set” (2004).
#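 Values below derive from 48-hour exposures of cells grown in 96-well plates, with endpoints linearly interpolated between the two concentrations bracketing the appropriate inhibition level. Here, GI50 denotes the concentration required for 50% inhibition of growth.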 The source made the active and inactive calls. Cut-off read from the data, not from the text of the source: active = GI50 up to about 1.1 µM and inactive = higher.
# Tests used:
# Assay in all cases: inhibition of tumour cell growth, NCI panel, 48 h
# KM12 = tested on: KM12
# RPMI-8226 = tested on: RPMI-8226
# NCI-H460 = tested on: NCI-H460
# Malme-3M = tested on: Malme-3M
# CCRF-CEM = tested on: CCRF-CEM
# TK-10 = tested on: TK-10
# HCC 2998 = tested on: HCC 2998
# M19-MEL = tested on: M19-MEL
# RXF 393 = tested on: RXF 393
# HT-29 = tested on: HT-29
# UO-31 = tested on: UO-31
# K562 = tested on: K562
# COLO 205 = tested on: COLO 205
# OVCAR-5 = tested on: OVCAR-5
# SK-OV-3 = tested on: SK-OV-3
# OVCAR-8 = tested on: OVCAR-8
# NCI-H23 = tested on: NCI-H23
# DLD-1 = tested on: DLD-1
# NCI-H522 = tested on: NCI-H522
# SK-MEL-5 = tested on: SK-MEL-5
# SR = tested on: SR
# HL-60 = tested on: HL-60
# SW-620 = tested on: SW-620
# UACC-257 = tested on: UACC-257
# U-251 = tested on: U-251
# SF-539 = tested on: SF-539
# 786-0 = tested on: 786-0
# SNB-19 = tested on: SNB-19
# ACHN = tested on: ACHN
# HOP-62 = tested on: HOP-62
# HCT-15 = tested on: HCT-15
# HOP-92 = tested on: HOP-92
# SNB-75 = tested on: SNB-75
# M14 = tested on: M14
# SF-295 = tested on: SF-295
# EKVX = tested on: EKVX
# NCI-H226 = tested on: NCI-H226
# LXFL 529 = tested on: LXFL 529
# IGROV-1 = tested on: IGROV-1
# KM-20L2 = tested on: KM-20L2
# SN12C = tested on: SN12C
# A549 = tested on: A549
# HCT-116 = tested on: HCT-116
# UACC-62 = tested on: UACC-62
# MOLT-4 = tested on: MOLT-4
# CAKI-1 = tested on: CAKI-1
# OVCAR-3 = tested on: OVCAR-3
# A498 = tested on: A498
# HOP-18 = tested on: HOP-18
# LOX IMVI = tested on: LOX IMVI
# DMS-273 = tested on: DMS-273
# SK-MEL-2 = tested on: SK-MEL-2
# OVCAR-4 = tested on: OVCAR-4
# SNB-78 = tested on: SNB-78
# XF498 = tested on: XF498
# SK-MEL-28 = tested on: SK-MEL-28
# DMS-114 = tested on: DMS-114
# SF-268 = tested on: SF-268
structure (smiles),measurement,setting,value
Cc1cccc(C)c1NC(=O)CCC(=O)NC(N)=S,GI50,KM12,> 100 µM (inactive)
same,GI50,RPMI-8226,> 100 µM (inactive)
same,GI50,NCI-H460,> 100 µM (inactive)
same,GI50,Malme-3M,> 100 µM (inactive)
same,GI50,CCRF-CEM,> 100 µM (inactive)
same,GI50,TK-10,> 100 µM (inactive)
same,GI50,HCC 2998,> 100 µM (inactive)
same,GI50,M19-MEL,> 100 µM (inactive)
same,GI50,RXF 393,> 100 µM (inactive)
same,GI50,HT-29,> 100 µM (inactive)
same,GI50,UO-31,> 100 µM (inactive)
same,GI50,K562,> 100 µM (inactive)
same,GI50,COLO 205,> 100 µM (inactive)
same,GI50,OVCAR-5,> 100 µM (inactive)
same,GI50,SK-OV-3,> 100 µM (inactive)
same,GI50,OVCAR-8,> 100 µM (inactive)
same,GI50,NCI-H23,> 100 µM (inactive)
same,GI50,DLD-1,> 100 µM (inactive)
same,GI50,NCI-H522,> 100 µM (inactive)
same,GI50,SK-MEL-5,> 100 µM (inactive)
same,GI50,SR,> 100 µM (inactive)
same,GI50,HL-60,> 100 µM (inactive)
same,GI50,SW-620,> 100 µM (inactive)
same,GI50,UACC-257,> 100 µM (inactive)
same,GI50,U-251,> 100 µM (inactive)
same,GI50,SF-539,> 100 µM (inactive)
same,GI50,786-0,> 100 µM (inactive)
same,GI50,SNB-19,> 100 µM (inactive)
same,GI50,ACHN,> 100 µM (inactive)
same,GI50,HOP-62,> 100 µM (inactive)
same,GI50,HCT-15,> 100 µM
same,GI50,HOP-92,> 100 µM (inactive)
same,GI50,SNB-75,> 100 µM (inactive)
same,GI50,M14,> 100 µM (inactive)
same,GI50,SF-295,> 100 µM (inactive)
same,GI50,EKVX,> 100 µM (inactive)
same,GI50,NCI-H226,> 100 µM (inactive)
same,GI50,LXFL 529,> 100 µM (inactive)
same,GI50,IGROV-1,> 100 µM (inactive)
same,GI50,KM-20L2,> 100 µM (inactive)
same,GI50,SN12C,> 100 µM (inactive)
same,GI50,A549,> 100 µM (inactive)
same,GI50,HCT-116,> 100 µM (inactive)
same,GI50,UACC-62,> 100 µM (inactive)
same,GI50,MOLT-4,> 100 µM (inactive)
same,GI50,CAKI-1,> 100 µM (inactive)
same,GI50,OVCAR-3,> 100 µM (inactive)
same,GI50,A498,> 100 µM (inactive)
same,GI50,HOP-18,> 100 µM (inactive)
same,GI50,LOX IMVI,> 100 µM (inactive)
CC(C)CCC[C@@H](C)[C@H]1CC[C@H]2[C@@H]3CC=C4CC(OCCCCN(O)CCCSC5OC(CO)C(O)C(O)C5O)CC[C@]4(C)[C@H]3CC[C@]12C (stereo partly drawn),GI50,KM12,33.5 µM (inactive)
same,GI50,RPMI-8226,> 100 µM (inactive)
same,GI50,NCI-H460,39.9 µM (inactive)
same,GI50,CCRF-CEM,26.4 µM (inactive)
same,GI50,TK-10,> 100 µM (inactive)
same,GI50,DMS-273,32 µM (inactive)
same,GI50,M19-MEL,> 100 µM (inactive)
same,GI50,RXF 393,79.3 µM (inactive)
same,GI50,HT-29,30.4 µM (inactive)
same,GI50,UO-31,> 100 µM (inactive)
same,GI50,K562,36.3 µM (inactive)
same,GI50,COLO 205,25.6 µM (inactive)
same,GI50,SK-MEL-2,17.4 µM (inactive)
same,GI50,OVCAR-5,> 100 µM (inactive)
same,GI50,SK-OV-3,> 100 µM (inactive)
same,GI50,OVCAR-8,74.1 µM (inactive)
same,GI50,OVCAR-4,> 100 µM (inactive)
same,GI50,NCI-H23,45.2 µM (inactive)
same,GI50,DLD-1,56.4 µM (inactive)
same,GI50,NCI-H522,23.1 µM (inactive)
same,GI50,SK-MEL-5,70.5 µM (inactive)
same,GI50,SR,34.7 µM (inactive)
same,GI50,HL-60,25.8 µM (inactive)
same,GI50,SW-620,22.6 µM (inactive)
same,GI50,UACC-257,> 100 µM (inactive)
same,GI50,U-251,30.2 µM (inactive)
same,GI50,SF-539,18.8 µM (inactive)
same,GI50,786-0,18 µM (inactive)
same,GI50,SNB-19,> 100 µM (inactive)
same,GI50,SNB-78,74.8 µM (inactive)
same,GI50,ACHN,> 100 µM (inactive)
same,GI50,HOP-62,94.2 µM (inactive)
same,GI50,HCT-15,43.4 µM
same,GI50,HOP-92,> 100 µM (inactive)
same,GI50,SNB-75,65.8 µM (inactive)
same,GI50,XF498,> 100 µM (inactive)
same,GI50,M14,25 µM (inactive)
same,GI50,SF-295,> 100 µM (inactive)
same,GI50,EKVX,> 100 µM (inactive)
same,GI50,SK-MEL-28,> 100 µM (inactive)
same,GI50,LXFL 529,23 µM (inactive)
same,GI50,IGROV-1,22.1 µM (inactive)
same,GI50,KM-20L2,> 100 µM (inactive)
same,GI50,SN12C,> 100 µM (inactive)
same,GI50,A549,42.2 µM (inactive)
same,GI50,DMS-114,25.5 µM (inactive)
same,GI50,HCT-116,56.1 µM (inactive)
same,GI50,UACC-62,> 100 µM (inactive)
same,GI50,MOLT-4,34 µM (inactive)
same,GI50,CAKI-1,> 100 µM (inactive)
same,GI50,SF-268,52.7 µM (inactive)
same,GI50,A498,> 100 µM (inactive)
same,GI50,LOX IMVI,21.8 µM (inactive)
